Data taken from publication PMC6095594, “Pre-clinical evaluation of quinoxaline-derived chalcones in tuberculosis” (PLoS ONE, 2018).
In brackets after ≈: the same amount, converted by molar mass. Where two headings read alike, the source gives them in different places.

How the values were obtained:
[1] = system: M. tuberculosis pNIP::KatG(S315T); type: cell-based, Mycobacterium tuberculosis
[2] = system: M. tuberculosis drug-resistant clinical isolate CDCT-10; type: cell-based, Mycobacterium tuberculosis
[3] = system: M. tuberculosis drug-resistant clinical isolate CDCT-16; type: cell-based, Mycobacterium tuberculosis
[4] = system: M. tuberculosis pNIP::InhA(S94A); type: cell-based, Mycobacterium tuberculosis
[5] = system: M. tuberculosis drug-resistant clinical isolate CDCT-27; type: cell-based, Mycobacterium tuberculosis
[6] = system: M. tuberculosis drug-resistant clinical isolate CDCT-10; details: cited from earlier work
[7] = system: M. tuberculosis drug-resistant clinical isolate CDCT-16; details: cited from earlier work
[8] = system: M. tuberculosis drug-resistant clinical isolate CDCT-27; details: cited from earlier work

Row | SMILES | MIC [1] [µg/mL] | MIC [2] [µg/mL] | MIC [3] [µg/mL] | MIC [4] [µg/mL] | MIC [5] [µg/mL] | MIC [6] [µg/mL] | MIC [7] [µg/mL] | MIC [8] [µg/mL]
1 | COc1cc(C(=O)/C=C/c2ccc3nccnc3c2)cc(OC)c1OC [N15] | 3.13 (≈ 8.93 µM) | 3.13 (≈ 8.93 µM) | 6.25 (≈ 17.8 µM) | 3.13 (≈ 8.93 µM) | 6.25 (≈ 17.8 µM) | – | – | –
2 | CO[C@H]1/C=C/O[C@@]2(C)Oc3c(C)c(O)c4c(O)c(c(/C=N/N5CCN(C)CC5)c(O)c4c3C2=O)NC(=O)/C(C)=C\C=C\[C@H](C)[C@H](O)[C@@H](C)[C@@H](O)[C@@H](C)[C@H](OC(C)=O)[C@@H]1C [RIF, Rifampicin] | – | – | – | – | – | >100 | >100 | <0.2
3 | NNC(=O)c1ccncc1 [INH, isoniazid, reference compound] | >100 | 6.25 (≈ 45.6 µM) | >100 | 12.5 (≈ 91.1 µM) | 25 (≈ 182 µM) | – | – | –
4 | COc1cccc(C(=O)/C=C/c2ccc3nccnc3c2)c1 [N23] | 1.25 (≈ 4.31 µM) | 2.5 (≈ 8.61 µM) | 5 (≈ 17.2 µM) | 2.5 (≈ 8.61 µM) | 5 (≈ 17.2 µM) | – | – | –
5 | COc1ccc(OC)c(C(=O)/C=C/c2ccc3nccnc3c2)c1 [N9] | 1.56 (≈ 4.87 µM) | 1.56 (≈ 4.87 µM) | 3.13 (≈ 9.77 µM) | 3.13 (≈ 9.77 µM) | 3.13 (≈ 9.77 µM) | – | – | –
